The values below come from paper PMC6264310, “Synthesis and Pharmacological Activity of Diterpenylnaphthoquinone Derivatives” (Molecules, 2011).

The test system of data set [1] is MRC-5 fibroblasts. Kind of data set: Basal cytotoxicity, neutral red uptake assay, MRC-5. Type of data set: cell-based. The conditions noted are these: Homo sapiens, MRC5, MRC-5, confluent cultures, 24 h, read-out: IC50 ± SEM, Fibroblasts. The procedure: (§1) 3.6. Cytotoxicity Assay
(§2) The human cell lines MRC-5 normal lung fibroblasts (ATCC CCL-171), AGS gastric adenocarcinoma cells (ATCC CRL-1739), and Hep G2 hepatocellular carcinoma cells (ATCC HB-8065) were obtained from the American Type Culture Collection (ATCC, Manassas, VA, USA). The cells were grown as monolayers in the following media: MRC-5 and Hep G2 in minimum essential Eagle’s medium (MEM), with Earle’s salts, 2.0 mM L-glutamine (Sigma Chemical Co.) and 2.2 g/L sodium bicarbonate (Sigma Chemical Co.), supplemented with 10% heat-inactivated fetal bovine serum (FBS), 100 IU/mL penicillin, and 100 µg/mL streptomycin in a humidified incubator with 5% CO2 in air at 37 °C. Cell passage was maintained between 10 and 16 for MRC-5 and between 79 and 82 for Hep G2 cells. The medium was changed every 2 days. Culture media, antibiotics, and FBS were obtained from Invitrogen Corp. Human gastric adenocarcinoma cells AGS (ATCC CRL-1739) were grown as monolayers in Ham F-12 medium containing 1.0 mM L-glutamine and 1.5 g/L sodium bicarbonate, supplemented with 10% heat-inactivated FBS, 100 IU/mL penicillin, and 100 µg/mL streptomycin in a humidified incubator with 5% CO2 in air at 37 °C. Cell passage was maintained between 42 and 48. The medium was changed every 2 days.
(§3) Confluent cultures of the different cell lines were treated with medium containing the compounds at concentrations ranging from 1 up to 1,000 µM. The antisecretory drug lansoprazole was used as reference compound. The substances were first dissolved in DMSO and then in the corresponding culture medium supplemented with 2% FBS. The final concentration of DMSO in the test medium and controls was 1%. The cells were exposed for 24 h to test medium with or without the compound (control). Each concentration was tested in quadruplicate together with the control and repeated three times in separate experiments. At the end of the incubation the neutral red uptake assay was performed.

Data set [2] has as its system Hep G2 cells. Kind of data set: Basal cytotoxicity, neutral red uptake assay, Hep G2. Type of data set: cell-based. The conditions noted are these: Homo sapiens, HepG2, Hep G2, confluent cultures, 24 h, read-out: IC50 ± SEM, Hep G2. The procedure: as §1, §2, §3
Data set [3] has as its system HCl-EtOH-induced gastric lesions. The data set can be described thus: HCl-EtOH-induced gastric lesion model in mice. The data set is classed as in vivo. The conditions noted are these: mice, single oral dose of 5 mg/kg; for responders at 5 mg/kg / inhibition in vivo at 5 mg/kg: Mus musculus, 1 h; for responders at 5 mg/kg: read-out: Protected stomachs (number of stomachs completely protected from any visible bleeding) (converted); for inhibition in vivo at 5 mg/kg: read-out: Protection (%). On the procedure: 3.5. HCl-EtOH-Induced Ulcer Model in Mice
The gastroprotective activity of the compounds was assessed in the EtOH-HCl-induced gastric lesion model. Male Swiss albino mice weighing 30 ± 3 g were used. The animals were fed on certified Champion diet with free access to water under standard conditions of 12 h dark-light period, 50% relative humidity, and 22 °C room temperature. The mice were randomly distributed into groups of 7–14 animals each and fasted for 24 h with free access to water before the oral administration of test samples by gavage. The purity of the tested compounds was higher than 95% by NMR analysis. To keep the animal numbers to a minimum, dose-response studies were performed with lapachol at 5, 10 and 50 mg/kg to set the conditions for single-dose comparison of gastroprotective effect. The tested compounds, lansoprazole (20 mg/kg) or the vehicle (12% Tween 80, 10 mL/kg) were administered orally by gavage. After 50 min, all groups were orally treated with 0.2 mL of a solution containing 60% EtOH-0.3 M HCl for gastric lesion induction. Animals were sacrificed by cervical dislocation 1 h after the administration of EtOH-HCl, and the stomachs excised and inflated by injection of 5% formalin (1 mL). The ulcerated stomachs were fixed in 5% formalin for 30 min and opened along the greater curvature. The length (mm) of each lesion was measured, and the lesion index expressed as the sum of the length of all lesions. Based on previous studies on the parent diterpenes, comparison of the new compounds 1–12 was carried out at a single oral dose of 5 mg/kg. The protocols were approved by the Universidad de Talca Institutional Animal Care and Use Committee, which follows the recommendations of the Canadian Council on Animal Care. Tween 80 and lansoprazole (>98% purity by HPLC) were purchased from Sigma-Aldrich.
Results were expressed as the mean ± SEM. In all experiments, statistical differences between several treatments and their respective control were determined by one-way ANOVA with Student-Newman-Keuls post-hoc test. The level of significance was set at P < 0.05.

Data set [4] relates to AGS cells. Kind of data set: Basal cytotoxicity, neutral red uptake assay, AGS. The data set is classed as cell-based. As to conditions: Homo sapiens, confluent cultures, 24 h, read-out: IC50 ± SEM, AGS. The procedure: as §1, §2, §3
The nature of data set [5]: Basal cytotoxicity, cell lines not separated in the text. Type of data set: cell-based. The conditions noted are these: human; stated in text without cell line. On the procedure: as §1
The human cell lines MRC-5 normal lung fibroblasts (ATCC CCL-171), AGS gastric adenocarcinoma cells (ATCC CRL-1739), and Hep G2 hepatocellular carcinoma cells (ATCC HB-8065) were obtained from the American Type Culture Collection (ATCC, Manassas, VA, USA). The cells were grown as monolayers in the following media: MRC-5 and Hep G2 in minimum essential Eagle’s medium (MEM), with Earle’s salts, 2.0 mM L-glutamine (Sigma Chemical Co.) and 2.2 g/L sodium bicarbonate (Sigma Chemical Co.), supplemented with 10% heat-inactivated fetal bovine serum (FBS), 100 IU/mL penicillin, and 100 µg/mL streptomycin in a humidified incubator with 5% CO2 in air at 37 °C. Cell passage was maintained between 10 and 16 for MRC-5 and between 79 and 82 for Hep G2 cells. The medium was changed every 2 days. Culture media, antibiotics, and FBS were obtained from Invitrogen Corp. Human gastric adenocarcinoma cells AGS (ATCC CRL-1739) were grown as monolayers in Ham F-12 medium containing 1.0 mM L-glutamine and 1.5 g/L sodium bicarbonate, supplemented with 10% heat-inactivated FBS, 100 IU/mL penicillin, and 100 µg/mL streptomycin in a humidified incubator with 5% CO2 in air at 37 °C. Cell passage was maintained between 42 and 48. The medium was changed every 2 days. […]

For orientation: IC50 means the midpoint of a concentration-inhibition curve. As to `C=C1CCC2[C@](C)(CCC[C@]2(C)C(=O)OC)[C@H]1CC[C@@H](C)CC(=O)OC1=C(CCC(C)C)C(=O)C2=C(CCCC2)C1=O` (stereo partly shown) [Compound 6, Dihydroprenyl-5,6,7,8-tetrahydrolapachoyl junicedrate methyl ester], the concentration for half-maximal inhibition (IC50) in data set [1], in data set [2] and in data set [4] was greater than 1000 µM in each case. Further, the responders at 5 mg/kg in data set [3] was 37.5%. The inhibition in vivo at 5 mg/kg in data set [3] stood at 74%. Further, the “Lesion index (mm) Mean ± SEM” value in data set [3] stood at 6.5 ± 2.7 mm. The half-inhibitory concentration (IC50) at 24 h in data set [5] was greater than 1000 µM.
In the case of `CC1=C(CC[C@@H](C)CC(=O)O)[C@@]2(C)CCC[C@](C)(C(=O)O)C2CC1` (stereo partly shown) [Δ8(9) junicedric acid (II), Δ8(9) Junicedric acid, reference compound], the half-maximal inhibitory concentration (IC50) in data set [1] was 214 ± 32 µM. The IC50 in data set [2] is greater than 1000 µM. Also, in data set [3], the responders at 5 mg/kg is 44.4%, the inhibition in vivo at 5 mg/kg amounted to 79% and the “Lesion index (mm) Mean ± SEM” value is 5.3 ± 2.4 mm. Further, the IC50 in data set [4] was found to be 343 ± 22 µM.
